{"source": "patent US8278351B2", "about": "“Natural marine source phospholipids comprising polyunsaturated fatty acids and their applications” (priority 2001, dated 2012)", "origin": "cited, not measured here", "key": {"[1]": {"system": "Obsessive Compulsive Disorder", "conditions": "week six, compared to placebo period"}, "panic disorder": {"system": "panic disorder", "conditions": "four weeks"}, "Alzheimer's Disease [2]": {"system": "Alzheimer's Disease"}, "depression": {"system": "depression", "conditions": "12 grams daily; placebo 0.6+/−10"}, "[3]": {"conditions": "high-dose inositol"}, "cancer cells": {"system": "cancer cells", "conditions": "in vitro"}, "[4]": {"system": "breast, ovarian, and lung cancer cells, mesothelioma cells"}, "cognitive decline": {"system": "cognitive decline", "conditions": "300 mg. per day for six months, versus placebo"}, "Alzheimer's Disease [5]": {"system": "Alzheimer's Disease", "conditions": "300 mg. per day for six weeks, 35 patients"}, "memory impairment": {"system": "memory impairment", "conditions": "300 mg. daily, three months"}, "[6]": {"system": "mitochondrial membrane potentials", "conditions": "experimental group, peripheral blood"}, "mitochondrial DNA": {"system": "mitochondrial DNA", "conditions": "treated group versus control; brain and cochlea"}}}
{"molecule": "O[C@H]1[C@H](O)[C@@H](O)[C@H](O)[C@@H](O)[C@H]1O", "note": "[inositol]", "values": [{"measurement": "improvement in OCD", "setting": "[1]", "value": "significant improvement"}, {"measurement": "frequency and severity of panic attacks and severity of agoraphobia", "setting": "panic disorder; versus placebo", "value": "declined significantly more after inositol than after placebo"}, {"measurement": "panic attacks after treatment", "setting": "panic disorder; decrease from 10 attacks per week, placebo 10 to 6", "value": 3, "unit": "per week"}, {"measurement": "CAMCOG subscales language and orientation", "setting": "Alzheimer's Disease [2]; only two of the eight subscales", "value": "significant improvement"}, {"measurement": "total CAMCOG score after inositol", "setting": "Alzheimer's Disease [2]; six grams inositol daily, four weeks", "value": "40.09+/−24.54"}, {"measurement": "total CAMCOG score, baseline", "setting": "Alzheimer's Disease [2]; six grams inositol daily, baseline", "value": "31.36+/−20.90"}, {"measurement": "improvement in depression as ranked by the Hamilton Depression Rating Scale", "setting": "depression", "value": "33.4+/−6"}, {"measurement": "increase of CSF levels of inositol", "setting": "[3]", "value": "≤ 70", "unit": "%"}]}
{"molecule": "Phosphatidylcholine", "values": [{"measurement": "cytotoxicity to cancer cells", "setting": "cancer cells", "value": "selectively cytotoxic"}, {"measurement": "difference in sensitivity between normal and tumor cells", "setting": "[4]", "value": "≤ 5", "unit": "fold"}, {"measurement": "dosage tolerated by normal cells relative to leukemic cells", "setting": "HL60 leukemic cells; 24 hours incubation", "value": 4, "unit": "times"}, {"measurement": "inhibition of HL60 leukemic cells", "setting": "HL60 leukemic cells; versus normal human marrow cells", "value": "inhibit HL60 leukemic cells at a dosage that has no effect on normal human marrow cells"}]}
{"molecule": "Phosphatidylserine [PS]", "values": [{"measurement": "memory and learning", "setting": "cognitive decline", "value": "significantly improved"}, {"measurement": "improvement in Alzheimer's patients", "setting": "Alzheimer's Disease [5]", "value": "significant improvement"}, {"measurement": "mental gain", "setting": "memory impairment", "value": 12, "unit": "years"}]}
{"molecule": "Polyunsaturated phosphatidylcholine", "values": [{"measurement": "preservation of hearing at all frequencies (3, 6, 9, 12 and 18 kHz)", "setting": "age-related hearing loss; 300 mg/kg/day oral diet, four and six months of treatment", "value": "statistically significant preservation of hearing"}, {"measurement": "overall effect on decline in hearing", "setting": "age-related hearing loss; 300 mg/kg/day, p<0.005 versus control", "value": "statistically significant protective effect"}, {"measurement": "mean fluorescence intensity (MFI), beginning of the study", "setting": "[6]; beginning of the study", "value": 3165}, {"measurement": "mean fluorescence intensity (MFI), end of the study", "setting": "[6]; end of the study (six months)", "value": 2990}, {"measurement": "mitochondrial DNA damage", "setting": "mitochondrial DNA", "value": "less mitochondrial DNA damage"}]}
